Data as given in the supplement of paper PMC10307832.

Columns and labels:
Test in all cases: relative viability (nuclei count vs DMSO), 5 days (fraction); higher = more cells survive
[1] = compound: C1/C(=C\C2=CC=CS2)/C(=O)/C(=C/C3=CC=CS3)/C1 + CC(=O)Nc1cccc(-n2c(=O)n(C3CC3)c(=O)c3c(Nc4ccc(I)cc4F)n(C)c(=O)c(C)c32)c1 [Trametinib] (partner 0.02 µM)
In short: (§1)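 Lung cancer cell lines were pin-tool dosed in 1536-well plates on the day after seeding, with either a lone drug or a fixed anchor-drug dose plus five library-drug doses (not always all listed) in √10 steps. Nuclei were counted on 4× images after 5 days. Relative viability is the ratio of treated-well to vehicle-well nuclei counts, with each value a median of duplicate plates.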

[2] = compound: C1/C(=C\C2=CC=CS2)/C(=O)/C(=C/C3=CC=CS3)/C1 + C[C@@H](Oc1cc(-c2cnn(C3CCNCC3)c2)cnc1N)c1c(Cl)ccc(F)c1Cl [Crizotinib] (partner 1 µM)
In short: as §1

TPCA-1 + Pictilisib = compound: C1=CC(=CC=C1C2=CC(=C(S2)NC(=O)N)C(=O)N)F [TPCA-1] + CS(=O)(=O)N1CCN(Cc2cc3nc(-c4cccc5[nH]ncc45)nc(N4CCOCC4)c3s2)CC1 [Pictilisib] (partner 1 µM)
In short: as §1

TPCA-1 + Olaparib = compound: C1=CC(=CC=C1C2=CC(=C(S2)NC(=O)N)C(=O)N)F [TPCA-1] + O=C(c1cc(Cc2n[nH]c(=O)c3ccccc23)ccc1F)N1CCN(C(=O)C2CC2)CC1 [Olaparib] (partner 8 µM)
In short: as §1

Cell Line | relative viability ([1]; first compound 0.2 µM) | relative viability ([1]; first compound 0.6325 µM) | relative viability ([1]; first compound 2 µM) | relative viability ([1]; first compound 6.325 µM) | relative viability ([1]; first compound 20 µM) | relative viability ([2]; first compound 0.2 µM) | relative viability ([2]; first compound 0.6325 µM) | relative viability ([2]; first compound 2 µM) | relative viability ([2]; first compound 6.325 µM) | relative viability ([2]; first compound 20 µM) | relative viability (TPCA-1 + Pictilisib; first compound 0.04 µM) | relative viability (TPCA-1 + Pictilisib; first compound 0.1265 µM) | relative viability (TPCA-1 + Pictilisib; first compound 0.4 µM) | relative viability (TPCA-1 + Pictilisib; first compound 1.265 µM) | relative viability (TPCA-1 + Pictilisib; first compound 4 µM) | relative viability (TPCA-1 + Olaparib; first compound 0.04 µM) | relative viability (TPCA-1 + Olaparib; first compound 0.1265 µM) | relative viability (TPCA-1 + Olaparib; first compound 0.4 µM) | relative viability (TPCA-1 + Olaparib; first compound 1.265 µM) | relative viability (TPCA-1 + Olaparib; first compound 4 µM)
SK-LU-1 | 0.563 | 0.503 | 0.536 | 0.411 | 0.489 | 1.12 | 1.03 | 0.925 | 0.763 | 0.923 | 0.797 | 0.465 | 0.44 | 0.436 | 0.317 | 0.544 | 0.37 | 0.428 | 0.418 | 0.315
LOU-NH91 | 0.777 | 0.775 | 0.781 | 0.75 | 0.806 | 0.739 | 0.572 | 0.743 | 0.679 | 0.714 | 0.527 | 0.438 | 0.563 | 0.507 | 0.469 | 0.885 | 0.846 | 0.922 | 0.94 | 0.773
LXF-289 | 0.707 | 0.693 | 0.675 | 0.626 | 0.613 | 0.811 | 0.835 | 0.767 | 0.709 | 0.821 | 0.836 | 0.698 | 0.797 | 0.735 | 0.499 | 1.09 | 0.94 | 1.12 | 1.06 | 0.735
NCI-H1299 | – | – | – | – | – | 0.958 | 0.976 | 0.928 | 0.903 | 0.589 | 0.854 | 0.669 | 0.828 | 0.614 | 0.243 | 0.947 | 0.963 | 0.941 | 0.932 | 0.939
HARA | 0.622 | 0.78 | 0.663 | 0.937 | 0.829 | 0.985 | 1.05 | 1.03 | 0.758 | 1.03 | 0.591 | 0.4 | 0.433 | 0.393 | 0.331 | 0.884 | 0.765 | 1.09 | 0.742 | 0.656
LU99A | 0.626 | 0.558 | 0.555 | 0.495 | 0.497 | 0.539 | 0.665 | 0.625 | 0.466 | 0.562 | 0.299 | 0.29 | 0.317 | 0.303 | 0.25 | 0.257 | 0.277 | 0.293 | 0.223 | 0.168
201T | 0.708 | 0.704 | 0.736 | 0.708 | 0.706 | 1.05 | 1.04 | 1.07 | 0.996 | 1.01 | 0.733 | 0.66 | 0.687 | 0.663 | 0.632 | 0.857 | 0.827 | 0.841 | 0.83 | 0.87
HCC-827 | 0.548 | 0.558 | 0.524 | 0.5 | 0.54 | 0.961 | 0.898 | 0.949 | 0.635 | 0.978 | 1.21 | 0.868 | 1.04 | 0.81 | 0.744 | 0.678 | 0.62 | 0.772 | 0.609 | 0.367
